System: patients of the REDUCE-IT and earlier EPA placebo-controlled trials
Assay: Example 3: adverse events by risk ratio, icosapent ethyl vs placebo (candidate categories; infectious disease terms of interest)
Settings: R-I
[1] = Age-Related Macular Degeneration

## CC/C=C\C/C=C\C/C=C\C/C=C\C/C=C\CCCC(=O)OCC [icosapent ethyl, eicosapentaenoic acid ethyl ester]
  Risk Ratio (95% CI): Cognitive Decline: Cognitive and attention disorders and disturbances (AE table): 1.000 (0.141 to 7.097) −1
  Risk Ratio (95% CI): Cognitive Decline: Cognitive disturbances (AE table): [No cases in study]
  Risk Ratio (95% CI): Cough (AE table): 1.000 (0.841 to 1.189) −1
  Risk Ratio (95% CI): Cystic Fibrosis (AE table): [No cases in study]
  Risk Ratio (95% CI): Decreased Appetite (AE table): 2.584 (1.329 to 5.024) −4
  Risk Ratio (95% CI): Deep Venous Thromboembolism (AE table): 0.625 (0.205 to 1.909) 2
  Risk Ratio (95% CI): Depression: Depressed mood disorders and disturbances (AE table): 1.106 (0.861 to 1.422) −1
  Risk Ratio (95% CI): Depression: Depressive disorders (AE table): 1.123 (0.867 to 1.454) −1
  Risk Ratio (95% CI): Depression: Depressive disorders - Agitated depression (AE table): [2 drugs vs 0 PBO]
  Risk Ratio (95% CI): Depression: Depressive disorders - Depression (AE table): 1.097 (0.843 to 1.428) −1
  Risk Ratio (95% CI): Depression: Depressive disorders - Major depression (AE table): 3.001 (0.312 to 28.836) −4
  Risk Ratio (95% CI): Depression: Depressive disorders - Persistent depressive disorder (AE table): 2.000 (0.181 to 22.053) −3
  Risk Ratio (95% CI): Depression: Mood alterations - Depressed mood (AE table): 1.000 (0.290 to 3.452) −1
  Risk Ratio (95% CI): Depression: Mood alterations - Depressive symptom (AE table): 0.500 (0.045 to 5.513) 3
  Risk Ratio (95% CI): Depression: Mood alterations with depressive symptoms (AE table): 0.857 (0.288 to 2.549) 1
  Risk Ratio (95% CI): Dermatitis psoriasiform (AE table): [1 drug vs 0 PBO]
  Risk Ratio (95% CI): Dermatitis, allergic (AE table): 0.250 (0.071 to 0.885) 4
  Risk Ratio (95% CI): Diabetic Nephropathy (AE table): 0.909 (0.387 to 2.139) 1
  Risk Ratio (95% CI): ESRD (AE table): 0.667 (0.111 to 3.989) 2
  Risk Ratio (95% CI): Ear infection (AE table): 0.821 (0.515 to 1.307) 1
  Risk Ratio (95% CI): Embolism and Thrombosis (AE table): 1.064 (0.716 to 1.581) −1
  Risk Ratio (95% CI): Emphysema (AE table): 0.600 (0.294 to 1.266) 2
  Risk Ratio (95% CI): Epilepsy (AE table): 1.000 (0.063 to 15.986) −1
  Risk Ratio (95% CI): Erectile dysfunction (AE table): 0.784 (0.535 to 1.151) 2
  Risk Ratio (95% CI): Furuncle (AE table): 0.500 (0.171 to 1.462) 3
  Risk Ratio (95% CI): Gastroenteritis, viral (AE table): 0.789 (0.525 to 1.185) 2
  Risk Ratio (95% CI): Gastroesophageal reflux (AE table): 0.333 (0.090 to 1.231) 4
  Risk Ratio (95% CI): Gingivitis (AE table): 0.500 (0.171 to 1.462) 3
  Risk Ratio (95% CI): Glomerulonephritis and Nephrotic Syndrome (AE table): [0 drug vs 4 PBO]
  Risk Ratio (95% CI): Guttate psoriasis (AE table): [1 drug vs 0 PBO)
  Risk Ratio (95% CI): Helicobacter infection (AE table): 0.556 (0.186 to 1.657) 3
  Risk Ratio (95% CI): Hepatitis C (AE table): [1 drug vs 0 PBO]
  Risk Ratio (95% CI): Herpes Zoster (AE table): 0.960 (0.695 to 1.325) 1
  Risk Ratio (95% CI): Herpes simplex (AE table): 0.625 (0.205 to 1.909) 2
  Risk Ratio (95% CI): Hyperglycemia (AE table): 0.764 (0.562 to 1.037) 2
  Risk Ratio (95% CI): Hyperkalemia (AE table): 0.582 (0.377 to 0.898) 3
  Risk Ratio (95% CI): Hypertension (AE table): 0.930 (0.804 to 1.077) 1
  Risk Ratio (95% CI): Hypertensive Crisis (AE Table): 0.698 (0.439 to 1.110) 2
  Risk Ratio (95% CI): Hypokalemia (AE table): 1.064 (0.784 to 1.445) −1
  Risk Ratio (95% CI): Hypomagnesemia (AE table): 0.675 (0.422 to 1.078) 2
  Risk Ratio (95% CI): IgA Nephropathy (AE table): [No cases in study]
  Risk Ratio (95% CI): Infected bite (AE table): 0.714 (0.227 to 2.249) 2
  Risk Ratio (95% CI): Influenza (AE table): 0.971 (0.824 to 1.144) 1
  Risk Ratio (95% CI): Influenza like illness (AE table): 0.852 (0.489 to 1.483) 1
  Risk Ratio (95% CI): Jaundice cholestatic (AE table): [4 drug vs 0 PBO]
  Risk Ratio (95% CI): Large intestine polyps (AE table): 0.385 (0.137 to 1.078) 4
  Risk Ratio (95% CI): Limb Fractures and Dislocations (AE table): 0.883 (0.541 to 1.439) 1
  Risk Ratio (95% CI): Lupus (AE table): [0 drugs vs 1 PBO]
  Risk Ratio (95% CI): Male Infertility (AE table): [No cases in study]
  Risk Ratio (95% CI): Microalbuminuria (AE table): 0.214 (0.062 to 0.745) 4
  Risk Ratio (95% CI): Migraine (AE table): 2.751 (0.877 to 8.631) −4
  Risk Ratio (95% CI): Mucosal inflammation (AE table): 0.600 (0.144 to 2.510) 2
  Risk Ratio (95% CI): Multiple Sclerosis (AE table): [0 drugs vs 1 PBO]
  Risk Ratio (95% CI): Muscle spasms (AE table): 0.579 (0.421 to 0.795) 3
  Risk Ratio (95% CI): NASH (AE table): 0.167 (0.020 to 1.384) 5
  Risk Ratio (95% CI): NASH for b/l NFS >0.675 (AE table): 0.252 (0.028 to 2.251) 4
  Risk Ratio (95% CI): NASH+Hepatic Steatosis for NFS >0.675 (AE table): 0.740 (0.342 to 1.601) 2
  Risk Ratio (95% CI): Nasopharyngitis, Mild Severity (AE table): 0.975 (0.840 to 1.133) 1
  Risk Ratio (95% CI): Nephrolithiasis (AE table): 1.050 (0.777 to 1.419) −1
  Risk Ratio (95% CI): Nephropathies (AE table): 0.679 (0.380 to 1.213) 2
  Risk Ratio (95% CI): Nephrotic Syndrome (AE table): [0 drug vs 1 PBO]
  Risk Ratio (95% CI): Orthopnea (AE table): 0.500 (0.151 to 1.660) 3
  Risk Ratio (95% CI): PMS/Dysmenorrhea (AE table): [No cases in study]
  Risk Ratio (95% CI): PTSD (AE table): 0.667 (0.111 to 3.989) 2
  Risk Ratio (95% CI): Pancytopenia (AE table): 0.556 (0.186 to 1.657) 3
  Risk Ratio (95% CI): Pneumonia (AE table): 0.950 (0.807 to 1.118) 1
  Risk Ratio (95% CI): Polycystic Ovarian Syndrome (AE table): [No cases in study]
  Risk Ratio (95% CI): Proteinuria (AE table): 0.609 (0.314 to 1.181) 2
  Risk Ratio (95% CI): Psoriasis (AE table): 1.750 (0.949 to 3.230) −3
  Risk Ratio (95% CI): Psoriatic Conditions (AE table): 1.875 (1.024 to 3.435) −3
  Risk Ratio (95% CI): Psychosis: Psychotic disorder NEC (AE table): 0.500 (0.045 to 5.513) 3
  Risk Ratio (95% CI): Pulmonary Edema (AE table): 0.556 (0.257 to 1.202) 3
  Risk Ratio (95% CI): Rental Transplant (AE table): [No cases in study]
  Risk Ratio (95% CI): Respiratory Failure (AE table): 0.909 (0.497 to 1.664) 1
  Risk Ratio (95% CI): Respiratory tract infection (AE table): 0.939 (0.629 to 1.401) 1
  Risk Ratio (95% CI): Rheumatoid Arthritis (AE table): [0 drug vs 3 PBO]
  Risk Ratio (95% CI): Rhinitis (AE table): 0.727 (0.383 to 1.383) 2
  Risk Ratio (95% CI): Schizophrenia NEC (AE table): 0.500 (0.045 to 5.513) 3
  Risk Ratio (95% CI): Sepsis (AE table): 0.786 (0.499 to 1.237) 2
  Risk Ratio (95% CI): Severe chronic obstructive pulmonary disease (AE table): 0.857 (0.458 to 1.607) 1
  Risk Ratio (95% CI): Severe dermatitis, allergic (AE table): 0.250 (0.028 to 2.236) 4
  Risk Ratio (95% CI): Severe gastroenteritis (AE table): 0.667 (0.273 to 1.630) 2
  Risk Ratio (95% CI): Severe sepsis (AE table): 0.759 (0.437 to 1.318) 2
  Risk Ratio (95% CI): Severe systemic inflammatory response syndrome (AE table): 0.167 (0.020 to 1.384) 5
  Risk Ratio (95% CI): Severe urinary tract infection (AE table): 0.650 (0.324 to 1.305) 2
  Risk Ratio (95% CI): Sickle Cell Disease (AE table): [No cases in study]
  Risk Ratio (95% CI): Systemic inflammatory response syndrome (AE table): 0.250 (0.053 to 1.177) 4
  Risk Ratio (95% CI): Tooth infection (AE table): 0.690 (0.391 to 1.217) 2
  Risk Ratio (95% CI): Ulcerative Colitis (AE table): [0 drug vs 1 PBO]
  Risk Ratio (95% CI): Vascular hypertensive disorder (AE table): 0.914 (0.796 to 1.050) 1
  Risk Ratio (95% CI): Vulvovaginal mycotic infection (AE table): 0.455 (0.158 to 1.307) 3
  Risk Ratio (95% CI): Wheezing (AE table): 0.639 (0.379 to 1.076) 2
ADHD
  ARR: 0.0%
  NNT: −8362005
  Risk Ratio (95% CI): 1.000 (0.141 to 7.097) −1
Acute Myeloid Leukaemia
  ARR: 0.0%
  NNT: −8362005
  Risk Ratio (95% CI): 1.000 (0.141 to 7.097) −1
[1]
  ARR: 0.0%
  NNT: −4088
  Risk Ratio (95% CI): 2.000 (0.181 to 22.053) −3
Alzheimer's Disease
  ARR: 0.0%
  NNT: −3344802
  Risk Ratio (95% CI): 1.000 (0.290 to 3.452) −1
Asthma
  ARR: 0.1%
  NNT: −1019
  Risk Ratio (95% CI): 1.076 (0.742 to 1.560) −1

From US20210308089A1, “METHODS OF TREATING AND/OR PREVENTING VIRAL INFECTIONS AND/OR DISEASES CAUSED BY VIRUSES IN A SUBJECT IN NEED THEREOF” (priority 2020, published 2021)
